Test results taken from ChEMBL document CHEMBL1165855, “Guaiane sesquiterpenes from seaweed Ulva fasciata Delile and their antibacterial properties” (2010).
Values after ≈ are worked out from the molar mass of the structure shown.

Assays:
Type in all cases: functional
Vibrio harveyi [1] = assay: Antibacterial activity against Vibrio harveyi MTCC 3438 after 24 hrs by broth microdilution assay; details: MTCC 3438, 24 h
Vibrio vulnificus [2] = assay: Antibacterial activity against Vibrio vulnificus MTCC 1145 at 150 ug/ml after 24 hrs by disc-diffusion assay; details: MTCC 1145, 24 h, read-out: DIZ
Vibrio harveyi [3] = assay: Antibacterial activity against Vibrio harveyi MTCC 3438 at 50 ug/ml after 24 hrs by disc-diffusion assay; details: MTCC 3438, 24 h, read-out: DIZ
Vibrio vulnificus [4] = assay: Antibacterial activity against Vibrio vulnificus MTCC 1145 after 24 hrs by broth microdilution assay; details: MTCC 1145, 24 h
Vibrio vulnificus [5] = assay: Antibacterial activity against Vibrio vulnificus MTCC 1145 at 50 ug/ml after 24 hrs by disc-diffusion assay; details: MTCC 1145, 24 h, read-out: DIZ
Vibrio parahaemolyticus [6] = assay: Antibacterial activity against Vibrio parahaemolyticus ATCC 17809 after 24 hrs by broth microdilution assay; details: ATCC 17809, 24 h
Vibrio parahaemolyticus [7] = assay: Antibacterial activity against Vibrio parahaemolyticus ATCC 17809 at 100 ug/ml after 24 hrs by disc-diffusion assay; details: ATCC 17809, 24 h, read-out: DIZ
Vibrio vulnificus [8] = assay: Antibacterial activity against Vibrio vulnificus MTCC 1145 at 100 ug/ml after 24 hrs by disc-diffusion assay; details: MTCC 1145, 24 h, read-out: DIZ
Vibrio parahaemolyticus [9] = assay: Antibacterial activity against Vibrio parahaemolyticus ATCC 17809 at 50 ug/ml after 24 hrs by disc-diffusion assay; details: ATCC 17809, 24 h, read-out: DIZ
Vibrio parahaemolyticus [10] = assay: Antibacterial activity against Vibrio parahaemolyticus ATCC 17809 at 150 ug/ml after 24 hrs by disc-diffusion assay; details: ATCC 17809, 24 h, read-out: DIZ
Vibrio harveyi [11] = assay: Antibacterial activity against Vibrio harveyi MTCC 3438 at 100 ug/ml after 24 hrs by disc-diffusion assay; details: MTCC 3438, 24 h, read-out: DIZ
Vibrio harveyi [12] = assay: Antibacterial activity against Vibrio harveyi MTCC 3438 at 150 ug/ml after 24 hrs by disc-diffusion assay; details: MTCC 3438, 24 h, read-out: DIZ

Row | MIC (Vibrio harveyi [1]) [µg/mL] | MIC (Vibrio vulnificus [4]) [µg/mL] | SMILES | zone of inhibition at 150 µg/mL (Vibrio vulnificus [2]) [mm] | zone of inhibition at 50 µg/mL (Vibrio harveyi [3]) [mm] | zone of inhibition at 50 µg/mL (Vibrio vulnificus [5]) [mm] | MIC (Vibrio parahaemolyticus [6]) [µg/mL] | zone of inhibition at 100 µg/mL (Vibrio parahaemolyticus [7]) [mm] | zone of inhibition at 100 µg/mL (Vibrio vulnificus [8]) [mm] | zone of inhibition at 50 µg/mL (Vibrio parahaemolyticus [9]) [mm] | zone of inhibition at 150 µg/mL (Vibrio parahaemolyticus [10]) [mm] | zone of inhibition at 100 µg/mL (Vibrio harveyi [11]) [mm] | zone of inhibition at 150 µg/mL (Vibrio harveyi [12]) [mm]
1 | 160 (≈ 720 µM) | 125 (≈ 562 µM) | CC(C)[C@H]1CCC[C@@](C)(O)[C@H]2C=C[C@H](C)[C@@H]12 | 7.85 | 6.54 | 7.15 | 110 (≈ 495 µM) | 6.92 | 7.3 | 6.83 | 7.28 | 6.58 | 6.6
2 | 50 (≈ 225 µM) | 40 (≈ 180 µM) | CC[C@H]1CCC[C@@](C)(CO)[C@H]2C=C[C@H](C)[C@@H]12 | 12.4 | 10.6 | 11.7 | 35 (≈ 157 µM) | 12.9 | 12 | 12.7 | 13.2 | 11.7 | 12.9
3 | 30 (≈ 113 µM) | 25 (≈ 94.6 µM) | CC[C@H]1CCC[C@@](C)(COC(C)=O)[C@H]2C=C[C@H](C)[C@@H]12 | 15.1 | 11.7 | 14.1 | 25 (≈ 94.6 µM) | 15.8 | 14.9 | 15.3 | 16.6 | 12.3 | 12.6
